Test results published in PubChem BioAssay (NCI).
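Five concentrations, 48 hours, 96-well plates. TGI denotes the concentration required for complete inhibition of growth.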

What was measured:
Experiment in all cases: growth of human tumour cells (NCI), 48 h
[1] = test system: MOLT-4 leukemia
[2] = test system: NCI-H460 lung
[3] = test system: KM12 colon
[4] = test system: K-562 leukemia
[5] = test system: OVCAR-3 ovarian
[6] = test system: LOX IMVI melanoma
[7] = test system: OVCAR-5 ovarian
[8] = test system: SN12C renal
[9] = test system: OVCAR-8 ovarian
[10] = test system: EKVX NSCLC
[11] = test system: OVCAR-4 ovarian
[12] = test system: SK-MEL-28 melanoma
[13] = test system: NCI-H522 lung
[14] = test system: HOP-62 NSCLC
[15] = test system: HL-60(TB) leukemia
[16] = test system: MDA-MB-231 breast
[17] = test system: SF-268 CNS
[18] = test system: PC-3 prostate
[19] = test system: NCI/ADR-RES ovarian

Compound	TGI [1] [µM]	TGI [2] [µM]	TGI [3] [µM]	TGI [4] [µM]	TGI [5] [µM]	TGI [6] [µM]	TGI [7] [µM]	TGI [8] [µM]	TGI [9] [µM]	TGI [10] [µM]	TGI [11] [µM]	TGI [12] [µM]	TGI [13] [µM]	TGI [14] [µM]	TGI [15] [µM]	TGI [16] [µM]	TGI [17] [µM]	TGI [18] [µM]	TGI [19] [µM]
CCOC(=O)C(C(=O)OCC)S(C)(=O)=O	> 100	> 100	> 100	> 100	> 100	> 100	> 100	> 100	> 100	> 100	> 100	> 100	> 100	> 100	> 100				
O=C(OCC1CC(C2(O)CCCCC2)C(=O)O1)c1ccccc1 (stereo not drawn)	> 100	> 100	> 100	> 100	> 100	> 100	> 100	> 100	> 100	> 100	> 100	> 100	> 100	> 100		> 100	> 100	> 100	> 100
N#Cc1c2c(c(Nc3cccc(C(F)(F)F)c3)n3c1nc1ccccc13)CCCC2	> 100	> 100	> 100		> 100	35.8	46.6	88.8	34.1	62.4	> 100	47.5	22.1	36.3		58.9	43.1		51.8
CCOC(OCC)[C@@H]1C[C@@H]2N(O[C@H](OC3CCCC3(c3ccccc3)c3ccccc3)[C@H](OC(C)=O)[C@@]2(CC)Cc2ccc(OC)c(OC)c2)O1 (stereo partly drawn)	> 100	> 100	> 100	> 100	> 100	> 100	> 100	> 100		> 100	> 100	> 100	> 100	> 100		> 100	> 100	> 100	> 100
Nc1nc(N)c2c(-c3ccccc3)ccnc2n1		> 100		> 100	> 100	> 100	> 100	> 100		> 100	> 100	> 100	> 100	> 100	> 100	> 100	> 100	> 100	
CCOC(=O)C1=C(C)C2C3C(=O)OC(=O)C3C1(C)C1C(=O)OC(=O)C21 (stereo not drawn)	> 100	> 100	> 100	> 100	> 100	> 100		> 100	> 100	> 100	> 100	> 100		> 100	> 100		> 100		
Cc1cc2nc3c(C#N)c4c(c(Cl)n3c2cc1C)CCC4	> 100	> 100	> 100		49.7	32	77.8	33.8	37.4	> 100	> 100	88.9	32.5	> 100		35.1	53.3		46.2
CCCc1cn2c(/C=N/N=C(N)N)c(-c3ccc([N+](=O)[O-])cc3)nc2s1	0.441				0.377	3.04	3.14	3.06	3.21	3.62		4.66		3.16	2.52	3.51		7.01	
CN(CCO)c1nc(=O)c2c(n1C1OC(CO)C(O)C(O)C1O)CCCC2 (stereo not drawn)	> 100	> 100	> 100	> 100	> 100	> 100	> 100	> 100	> 100	> 100		> 100	> 100	> 100	> 100		> 100		
O=C1CS(=O)c2ccccc2N1 (stereo not drawn)	> 100	> 100	> 100	> 100	> 100	> 100	> 100	> 100	> 100	> 100	> 100	> 100	> 100	> 100	> 100		> 100		
CCCC1(N2C(=O)c3ccc4c5c(ccc(c35)C2=O)N(C2(CCC)CCCCC2)C4=O)CCCCC1	> 100	> 100	> 100	> 100	> 100		> 100	> 100	> 100		> 100	> 100	> 100	> 100		> 100	> 100	> 100	> 100
O=S1(=O)OCCOS(=O)(=O)C1(Br)Br	> 100		> 100	> 100	> 100			> 100	> 100	> 100	> 100	> 100	> 100	> 100	> 100		> 100		
